Source: the NIST ThermoML archive (doi:10.1016/j.jct.2016.02.010)

Key:
[1] = Molar enthalpy of transition or fusion; conditions: Crystal; DSC
[2] = Crystal; for Normal melting temperature: DTA; for vapor or sublimation pressure: Calculated from knudsen effusion weight loss
[3] = molar heat capacity at constant pressure; conditions: 101.33 kPa, Small sample (50 mg) DSC

CC(O)c1ccccc1 (configuration not stated) [1-phenylethanol]
Conditions	Molar enthalpy of transition or fusion [kcal/mol]	Normal melting temperature [°C]
[1]	3.82	–
[2]	–	18.6

[3], Liquid
Conditions	molar heat capacity at constant pressure [J/K/mol]
297.15 K	262.4
298.15 K	263.1
299.15 K	263.9
300.15 K	264.6
301.15 K	265.1
302.15 K	265.8
303.15 K	267.1
304.15 K	267.9
305.15 K	268.5
306.15 K	269.4
307.15 K	269.8
308.15 K	271
309.15 K	271.7
310.15 K	272.4
311.15 K	273
312.15 K	273.7
313.15 K	274.7
314.15 K	275.1
315.15 K	275.7
316.15 K	276.4
317.15 K	277.3
318.15 K	278.2
319.15 K	279.1
320.15 K	279.6
321.15 K	280.3
322.15 K	281
323.15 K	281.5
324.15 K	282.2
325.15 K	283
326.15 K	283.9
327.15 K	284.4
328.15 K	284.8
329.15 K	285.4
330.15 K	286
331.15 K	286.7
332.15 K	287.3
333.15 K	288.1
334.15 K	288.9
335.15 K	289.6
336.15 K	290.2
337.15 K	290.6
338.15 K	291.2
339.15 K	292
340.15 K	292.5
341.15 K	293
342.15 K	293.6
343.15 K	294.2
344.15 K	295.2
345.15 K	295.7
346.15 K	296.3
347.15 K	296.9
348.15 K	297.5
349.15 K	298.1
350.15 K	298.3
351.15 K	298.8
352.15 K	299.2
353.15 K	300.7
354.15 K	300.8
355.15 K	301.7
356.15 K	302.8
357.15 K	303.4
358.15 K	303.8
359.15 K	303.9
360.15 K	304.5
361.15 K	305.3
362.15 K	305.7
363.15 K	306.1
364.15 K	307
365.15 K	307.7
366.15 K	308.4
367.15 K	308.6
368.15 K	308.9
369.15 K	309.5
370.15 K	310.3
371.15 K	311.1
372.15 K	311.6
373.15 K	311.8

OC(c1ccccc1)c1ccccc1 [diphenylmethanol]
Conditions	Molar enthalpy of transition or fusion [kcal/mol]	Normal melting temperature [°C]
[1]	5.66	–
[2]	–	66.2

Conditions	mass density [kg/m3]
[2], 298 K, 101.33 kPa, Pycnometric method	1210

[2]
Conditions	vapor or sublimation pressure [kPa]
301.97 K	0.000128
304.52 K	0.00018
305.16 K	0.000198
308.1 K	0.00028
311.41 K	0.000446
314.06 K	0.00061
317.02 K	0.00091

[3], Crystal
Conditions	molar heat capacity at constant pressure [J/K/mol]
259.15 K	202.8
260.15 K	203.3
261.15 K	203.9
262.15 K	204.6
263.15 K	205.2
264.15 K	206.1
265.15 K	206.8
266.15 K	207.6
267.15 K	208.5
268.15 K	209.5
269.15 K	210.3
270.15 K	211.1
271.15 K	211.7
272.15 K	212.5
273.15 K	213.8
274.15 K	214.1
275.15 K	215.2
276.15 K	215.9
277.15 K	216.9
278.15 K	216.8
279.15 K	217.6
280.15 K	218.5
281.15 K	219.4
282.15 K	220.2
283.15 K	221
284.15 K	221.8
285.15 K	222.8
286.15 K	223.3
287.15 K	224.3
288.15 K	225
289.15 K	225.8
290.15 K	226.5
291.15 K	227.4
292.15 K	228.2
293.15 K	229.1
294.15 K	229.9
295.15 K	230.7
296.15 K	231.9
297.15 K	232
298.15 K	233
299.15 K	233.7
300.15 K	234.5
301.15 K	235.4
302.15 K	236.2
303.15 K	237
304.15 K	237.8
305.15 K	238.7
306.15 K	239.6
307.15 K	240.7
308.15 K	241.8
309.15 K	242.5
310.15 K	243.3
311.15 K	244.2
312.15 K	245.2
313.15 K	246
314.15 K	247
315.15 K	247.8
316.15 K	248.8
317.15 K	249.8
318.15 K	250.7
319.15 K	251.7
320.15 K	252.5
321.15 K	253.5
322.15 K	254.4
323.15 K	255.3
324.15 K	256.4
325.15 K	257.4
326.15 K	258.5
327.15 K	259.5
328.15 K	260.7
329.15 K	261.8
330.15 K	263.1
331.15 K	265.1
332.15 K	267

OC(c1ccccc1)(c1ccccc1)c1ccccc1 [triphenylmethanol]
Conditions	Molar enthalpy of transition or fusion [kcal/mol]	Normal melting temperature [°C]
[1]	6.52	–
[2]	–	162.1

[2]
Conditions	vapor or sublimation pressure [kPa]
342.25 K	3.35e-06
344.44 K	4.39e-06
347.56 K	6.8e-06
351.64 K	1.11e-05
353.37 K	1.42e-05
356.81 K	1.93e-05
358.08 K	2.17e-05

[3], Crystal
Conditions	molar heat capacity at constant pressure [J/K/mol]
259.15 K	283
260.15 K	283.6
261.15 K	284.9
262.15 K	285.6
263.15 K	286.4
264.15 K	288.3
265.15 K	289.5
266.15 K	290.4
267.15 K	291.2
268.15 K	290.8
269.15 K	292.3
270.15 K	293.4
271.15 K	294.3
272.15 K	295.3
273.15 K	296.5
274.15 K	297.4
275.15 K	297.3
276.15 K	298.6
277.15 K	299.8
278.15 K	301.2
279.15 K	302.1
280.15 K	302.8
281.15 K	303.4
282.15 K	304.7
283.15 K	306
284.15 K	305.9
285.15 K	307
286.15 K	307.4
287.15 K	308.9
288.15 K	309.3
289.15 K	310.1
290.15 K	310.6
291.15 K	311.8
292.15 K	312.5
293.15 K	312.9
294.15 K	313.5
295.15 K	314.7
296.15 K	315.1
297.15 K	316.1
298.15 K	316.4
299.15 K	316.9
300.15 K	319.7
301.15 K	320.5
302.15 K	321.2
303.15 K	322.1
304.15 K	323
305.15 K	324.7
306.15 K	325.1
307.15 K	326.1
308.15 K	327.2
309.15 K	328.5
310.15 K	329.3
311.15 K	330
312.15 K	331.2
313.15 K	331.9
314.15 K	332.7
315.15 K	333.4
316.15 K	334.4
317.15 K	335.9
318.15 K	336.8
319.15 K	337.6
320.15 K	338.3
321.15 K	339.8
322.15 K	340.7
323.15 K	343.5
324.15 K	344.4
325.15 K	345.5
326.15 K	346.3
327.15 K	347.4
328.15 K	348.5
329.15 K	349.7
330.15 K	350.6
331.15 K	351.4
332.15 K	352.2
333.15 K	353.2
334.15 K	354.1
335.15 K	355
336.15 K	356.1
337.15 K	357.1
338.15 K	358.3
339.15 K	359.3
340.15 K	359.9
341.15 K	360.8
342.15 K	362
343.15 K	363.1
344.15 K	363.9
345.15 K	364.6
346.15 K	365.7
347.15 K	366.7
348.15 K	367.5
349.15 K	368.3
350.15 K	369.4
351.15 K	370.6
352.15 K	371.3
353.15 K	374.6
354.15 K	375.6
355.15 K	376.7
356.15 K	378.1
357.15 K	379
358.15 K	379.6
359.15 K	380.8
360.15 K	381.6
361.15 K	382.3
362.15 K	383
363.15 K	383.8
364.15 K	384.8
365.15 K	386.1
366.15 K	387.2
367.15 K	387.8
368.15 K	389.1
369.15 K	391
370.15 K	393.2
371.15 K	395.8
372.15 K	396.3
373.15 K	397.3
